Measured values as given in patent US5871954A, “Fatty acid analog enzyme substrates” (Washington University, priority 1993, dated 1999).
“Also recorded” adds a separate entry of the source. Starred links: 1 amine or outer side, 2 acyl side, 3 side chain; linkers in the order of their positions; H or OH if unused. Non-standard residues stand in square brackets, D forms with d. No end group written: not given here. *: point of attachment. Tyr(125I) = 125I-iodotyrosine, O=C([C@H](Cc1ccc(O[*:3])c([125I])c1)N[*:1])[*:2]; 11‑(ethylthio)undecanoyl = CCSCCCCCCCCCCC(=O)*

Tests used:
[1] = C18 reverse phase HPLC elution of acyl peptides (hydrophobicity); format: physicochemical; conditions: for elution earlier than the corresponding myristoyl peptide: acyl-GNAASYRR[125I]; for Elution Time: Table 2, C18 reverse phase HPLC; for elution time of fatty acyl derivative of GNAAAARR: HPLC
Experimental: The fatty acid analog acyl-peptide eluted 7 minutes earlier than the corresponding myristoyl peptide. The free peptide elutes in the void volume (3-5 minutes).
This difference was evident when the HPLC elution characteristics of fatty acyl peptides were examined. The elution time of a particular acyl-peptide depends strongly on the peptide sequence as well as on the acyl chain attached to that peptide. For example, the elution times of fatty acyl derivatives of GNAAAARR are (in minutes) decanoic acid, 9; dodecanoic acid, 18; myristic acid, 24; and palmitic acid, 30. Elution times for fatty acyl derivatives of GNAAS[^125 I]YRR are 23 and 28 minutes for C12 and C14 fatty acids, respectively (FIG. 2). […] Such a change could alter the biological activity of myristoyl proteins.
(§1) For these Examples, each analog synthesized is characterized by ^1 H and 13C NMR as well as mass spectroscopy. The analogs are then characterized kinetically as NMT substrates. Briefly, fatty acid analogs are converted to their CoA esters with Pseudomonas CoA ligase and incubated with the iodinated peptide GNAAS[^125 I]YRR and a source of NMT. […] The radiolabelled peptide is then used at concentrations which will lead to 50% enzyme saturation (i.e., at its Km) for the determination of fatty acid analog kinetic characteristics. Representative analogs with sulfur or oxygen in the backbone of the fatty acid chain serve as good substrates for NMT in vitro and will compete for incorporation of ^3 H labelled myri-state into yeast proteins in vivo. In addition, these analogs differ markedly in hydrophobicity from myri-state as measured both by C18 reverse phase HPLC elution profiles and by 2-octanol/water partition coefficients. The analog CH3 O (CH2)11 COOH, for example, partitions into water 20 fold better than myristate. It is believed that these analogs will be incorporated into mammalian acylproteins in vivo and that their incorporation into these proteins will drastically alter protein processing or targeting. It is further believed that the incorporation of fatty acid analogs of both myristate and palmitate into ester linked and phosphatidyl inositol glycan linked acylproteins will also dramatically alter their properties. Since many viral proteins and oncogenes are acylated, these compounds represent a new class of potential antiviral and antineoplastic agents.

[2] = target: T1, myristoyl CoA: protein N-myristoyl transferase (NMT) (Saccharomyces cerevisiae, UniProt P14743); assay: substrate activity for myristoylating enzyme (general statement); format: biochemical; conditions: in words
T1 construct: CoA ester made in situ by Pseudomonas CoA ligase
T1 sequence (P14743 1-455): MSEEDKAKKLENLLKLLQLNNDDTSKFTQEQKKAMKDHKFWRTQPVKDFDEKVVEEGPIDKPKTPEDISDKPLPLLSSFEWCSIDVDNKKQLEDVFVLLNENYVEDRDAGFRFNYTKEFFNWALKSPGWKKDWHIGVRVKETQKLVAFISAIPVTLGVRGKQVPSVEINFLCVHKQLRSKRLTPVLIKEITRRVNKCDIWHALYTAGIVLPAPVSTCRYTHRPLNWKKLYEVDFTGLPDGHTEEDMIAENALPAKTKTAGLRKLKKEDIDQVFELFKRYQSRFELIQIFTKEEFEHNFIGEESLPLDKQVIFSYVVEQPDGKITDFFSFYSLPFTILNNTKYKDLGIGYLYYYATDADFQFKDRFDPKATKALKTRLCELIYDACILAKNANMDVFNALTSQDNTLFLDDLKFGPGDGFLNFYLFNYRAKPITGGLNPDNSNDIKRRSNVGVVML
Experimental: Purification and use of this enzyme are described, for example, by Towler et al., Proc. Natl. Acad. Sci. USA 84, 2708-2712 (1987); J. Biol. Chem. 262, 1030-1036 (1987).
as §1, with “It is further believed that the incorporation of fatty acid analogs of both myristate and palmitate into ester linked and phosphatidyl inositol glycan linked acylproteins will also dramatically alter their properties. Since many viral proteins and oncogenes are acylated, these compounds represent a new class of potential antiviral and antineoplastic agents.” left out

yeast NMT = target: T2, yeast NMT (Saccharomyces cerevisiae, UniProt P14743); assay: in vitro yeast NMT assay, kinetics of fatty acid analog substrates with iodinated peptide GNAAS[125I]YRR; format: biochemical; conditions: for Peptide Vm / Acyl CoA Vm: Table 2, relative to myristate control 100%; for Peptide Vm: fatty acid analog at 15 μM; for Acyl CoA Vm: peptide at its Km
T2 construct: 11,000-fold purified preparation of yeast NMT; from tissue; host or cells: yeast
T2 sequence (P14743 1-455): T1 sequence (P14743 1-455)
Excerpt: Similar results were obtained using an 11,000-fold purified preparation of yeast NMT [Towler et al., Proc. Natl. Acad. Sci. USA 84, 2708-2712 (1987)].
Other illustrative examples of the oxy- and thio-substituted fatty acid analog substrate compounds of the invention were synthesized in Examples 6 to 14 and tested in Example 15 as substrates for the yeast NMT.
as §1

wheat germ NMT = assay: in vitro wheat germ NMT myristoylation assay, kinetics with iodinated peptide GNAAS[125I]YRR; format: biochemical
Experimental: Myristoyl CoA and fatty acid analog CoA were generated by incubation of the fatty acid or analog with CoA, ATP and CoA ligase. This reaction mixture was added to wheat germ NMT and Gly-Asn-Ala-Ala-Ser-[^125 I]Tyr-Arg-Arg in the presence of 0.03% Triton® X-100. Reaction products were characterized by reverse phase HPLC and gamma counting.
The invention is illustrated in greater detail in the following Examples 1 to 15 by the synthesis and testing of representative compounds of the invention as myristoylating enzyme substrates. Accordingly, the invention is first illustrated in Examples 1 to 5 by the chemical synthesis of a sulfur-containing analog of myristic acid, namely 11-(ethylthio)undecanoicacid, CH3 CH2 --S--(CH2)10 COOH, which is then tested in vitro as a wheat germ NMT substrate. Wheat germ NMT is a protein similar to yeast NMT. The purity and chemical identity of the synthesized compound were examined using ^1 H and ^13 C NMR as well as mass spectroscopy. The assay that was used to characterize the substrate specificity of wheat germ NMT measures the rate of attachment of a radiolabelled fatty acid to an unlabelled peptide. The fatty acid analog synthesized was nonradioactive.
The in vitro assay for NMT activity requires the enzymatic generation of fatty acyl CoA. Since the Pseudomonas acyl CoA ligase is quite nonspecific [Shimizo et al., Anal. Biochem. 107, 193-198 (1980)] and is used in excess, it should equally well convert myristic acid and 11-(ethylthio)undecanoic acid to the corresponding CoA esters. It is, therefore, believed that the data represent the relative catalytic efficiency of fatty acyl CoA and analog CoA for wheat germ NMT.
Assays for NMT activity were performed using a procedure detailed previously by Towler and Glaser, Proc. Natl. Acad. Sci. USA 83, 2812-2816 (1986). Briefly, the in vitro assay measures the transfer of radiolabelled fatty acid from acyl CoA to a synthetic peptide substrate. The acylpeptide product is identified by reverse phase HPLC. Time and enzyme dependence were evaluated by varying the reaction time or the enzyme concentration. […] Fatty acid specificity was examined essentially as described by Towler et al., J. Biol. Chem. 262, 1030-1036 (1987), except that the peptide Gly-Ser-Ser-Lys-Ser-Lys-Pro-Lys rather than Gly-Asn-Ala-Ala-Ala-Ala-Arg-Arg was used to compare palmitate and myristate utilization by wheat germ NMT. This was necessary because of the presence of a large, peptide-independent peak which co-eluted with a palmitoyl-Gly-Asn-Ala-Ala-Ala-Ala-Arg-Arg standard. [^3 H]Palmitate and [^3 H]myristate were used in this comparison. [^14 C]fatty acids were used to compare C-10, C-12 and C-14 chain lengths. Fatty acyl CoA concentrations in these assays were determined by a modification of the method of Hosaka et al., Methods Enzymol. 71, 325-333 (1981).
Gly-Asn-Ala-Ala-Ser-[^125 I]Tyr-Arg-Arg as prepared in Example 2, above, was tested in an in vitro myristoylation system which was modified from that used with radiolabelled fatty acids. […] 20-fold more wheat germ NMT (480-fold purified as in Example 3, above) was used for these assays than for assays which employed [^3 H] myristate. […] Double reciprocal plots were generated for the iodinated peptide with both myristic acid and the sulfur analog by altering the peptide concentration in the presence of a constant amount of fatty acid or analog. […] The assays contained 0.03% Triton X-100 to maintain the solubility of the fatty acids.

[3] = C-18 reverse phase HPLC, FIG. 2
[4] = iodinated peptide 40 μM, 0.03% Triton X-100, FIG. 1

| Compound | Elution Time [1] [min] | Peptide Vm (yeast NMT) [%] | Acyl CoA Vm (yeast NMT) [%] | further results |
| --- | --- | --- | --- | --- |
| 11-(ethylthio)undecanoyl-GNAASYRR[^125 I]: fatty acid analog acyl-peptide ({11‑(ethylthio)undecanoyl}-GNAAS[Tyr(125I)]RR) |  |  |  | elution earlier than the corresponding myristoyl peptide [1, 3]: 7 min; elution earlier than the corresponding myristoyl peptide ([1]; C-18 reverse phase HPLC, FIG. 2, listed as 11-(ethylthio)undecanoyl-GNAAS [^125 I]YRR): seven minutes earlier |
| CCCCOCCCCCCCCCCC(=O)O [CH3 (CH2)3 O(CH2)10 COOH, 11-(1-Butoxy)undecanoic acid] | 19 | 25 | 80 | effectiveness as substrate [2]: less effective than the analogs based on C13 -C14 fatty acids |
| CCCCCCCCCCCCCCCC(=O)O [palmitic acid, reference compound] |  |  |  | elution time of fatty acyl derivative of GNAAAARR [1]: 30 min |
| CCOCCCCCCCCCCC(=O)O [CH3 CH2 O(CH2)10 COOH, 11-(Ethoxy)undecanoic acid] | 12 | 62 | 64 |  |
| CCSCCCCCCCCCCC(=O)O [CH3 CH2 S(CH2)10 COOH, 11-(Ethylthio)undecanoic acid] | 18 | 98 | 130 | hydrophobicity ([1]; in words, vs myristic acid): decreases its hydrophobicity; also recorded: significantly different from that of myristic acid; effect on the kinetic characteristics of the peptide substrate (wheat germ NMT; in words, vs myristic acid): did not significantly alter the kinetic characteristics of the peptide substrate; Km (as CoA ester), times higher than for myristate (wheat germ NMT; [4]): 1.5 times; Vmax (as CoA ester), times higher than for myristate (wheat germ NMT; [4]): 3.5 times; apparent maximal velocity, times higher than with myristic acid (wheat germ NMT; peptide substrate varied): 2.3 times; effectiveness as substrate [2]: leaves intact its ability to act as a substrate; Km and Vmax vs C14:0 fatty acid (yeast NMT; 11,000-fold purified yeast NMT): indistinguishable from that of the C14:0 fatty acid |
| CCCCCCCCCC(=O)O [decanoic acid, reference compound] |  |  |  | elution time of fatty acyl derivative of GNAAAARR [1]: 9 min |
| CCCSCCCCCCCCCC(=O)O [CH3 (CH2)2 S(CH2)9 COOH, 10-(Propylthio)decanoic acid] | 18 |  | 250 |  |
| CCCCCCCCOCCCCC(=O)O [CH3 (CH2)7 O(CH2)4 COOH, 5-(octyloxy)pentanoic acid] | 16 |  |  |  |
| CCCCCCCCSCCCCC(=O)O [CH3 (CH2)7 S(CH2)4 COOH, 5-(Octylthio)pentanoic acid] | 21 |  | 160 |  |
| CCSCCCCCCCCCCC(=O)SCCNC(=O)CCNC(=O)[C@H](O)C(C)(C)COP(=O)(O)OP(=O)(O)OC[C@H]1O[C@@H](n2cnc3c(N)ncnc32)[C@H](O)[C@@H]1OP(=O)(O)O |  |  |  | substrate quality vs myristoyl CoA (wheat germ NMT; wheat germ NMT): at least as good a substrate for wheat germ NMT as myristoyl CoA itself |
| CCCCCCCCCCCCCC(=O)O [CH3 (CH2)12 COOH, myristic acid, reference compound] | 26 | 100 | 100 | elution time of fatty acyl derivative of GNAAS[125I]YRR [1, 3]: 28 min; elution time of fatty acyl derivative of GNAAAARR [1]: 24 min |
| CCCCCCCCCCCC(=O)O [dodecanoic acid, reference compound] |  |  |  | elution time of fatty acyl derivative of GNAAS[125I]YRR [1, 3]: 23 min; elution time of fatty acyl derivative of GNAAAARR [1]: 18 min |
| C#CCOCCCCCCCCCC(=O)O [HC≡CCH2 O(CH2)9 COOH, 10-(2-Propynoxy)decanoic acid] | 9 | 200 | 320 |  |
| Gly-Asn-Ala-Ala-Ser-[^125 I]Tyr-Arg-Arg [free peptide, reference compound] |  |  |  | elution of free peptide (void volume) [1, 3]: 3 to 5 min |
| CCCOCCCCCCCCCC(=O)O [CH3 (CH2)2 O(CH2)9 COOH, 10-(Propoxy)decanoic acid] |  | 150 | 250 |  |
